Assay results reported in BindingDB's records for doi:10.1021/ml3003346 (2012).

Assay: Inhibition of EZH2-mediated proliferation of human LNCaP cells after 6 days by chemiluminescence analysis

Cc1cc(C)c(CNC(=O)c2cc(-c3ccc(N4CCN(C)CC4)nc3)cc3c2cnn3C(C)C)c(=O)[nH]1
IC50: 4.5 µM
